Patent publication US8273738B2, “Imidazole derivatives” (priority 2006, dated 2012)
Where a name gives a salt, the structure may show the parent alone. Read-outs that look alike come from different tables or passages of the source.

Columns and labels:
[1] = molecular target: T1, CB2 receptor (Rattus norvegicus, UniProt Q9QZN9); assay: Cannabinoid CB2 receptor-binding activity ([3H]CP55940 binding experiment), rat spleen membrane specimen
T1 construct: from tissue; host or cells: rat spleen membrane specimen
T1 sequence (Q9QZN9 1-360): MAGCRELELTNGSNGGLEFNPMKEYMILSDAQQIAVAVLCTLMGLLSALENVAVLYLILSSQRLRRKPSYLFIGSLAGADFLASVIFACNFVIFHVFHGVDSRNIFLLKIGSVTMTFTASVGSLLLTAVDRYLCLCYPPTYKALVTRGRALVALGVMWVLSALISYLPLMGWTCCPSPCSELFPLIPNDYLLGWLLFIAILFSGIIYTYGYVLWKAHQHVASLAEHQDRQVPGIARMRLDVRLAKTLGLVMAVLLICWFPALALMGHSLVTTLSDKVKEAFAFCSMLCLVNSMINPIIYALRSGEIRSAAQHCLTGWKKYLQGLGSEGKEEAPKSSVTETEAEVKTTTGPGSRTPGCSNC
Protocol: A test was carried out according to the method of Hillard et al. [The Journal of Pharmacology and Experimental Therapeutics, vol. 289, p. 1427 (1999)]. A rat forebrain membrane specimen and a rat spleen membrane specimen were prepared and used in a binding experiment for a CB1 receptor and a binding experiment for a CB2 receptor, respectively. The membrane specimen (forebrain: final concentration of 0.5 mg of protein/mL, spleen: final concentration of 2 mg of protein/mL) was incubated together with a test compound and [^3H]CP55940 (manufactured by PerkinElmer) ((−)-cis-3-[2-hydroxy-[3,5-^3H]-4-(1,1-dimethylheptyl)phenyl]-trans-4-(3-hydroxypropyl)cyclohexanol)) (final concentration: 0.5 nmol/L) in an assay buffer (50 mmol/L Tris-HCl buffer (pH 7.4), 1 mmol/L EDTA and 3 mmol/L MgCl2) containing 0.1% bovine serum albumin at 25° C. for 1 hour, and the resulting mixture was filtered using a glass filter GF/C (manufactured by Whatman) treated with 1% polyethyleneimine. After the glass filter was washed with the assay buffer containing 0.2% bovine serum albumin, the radioactivity on the glass filter was measured using a liquid scintillation counter (TRI-CARB 2700TR, manufactured by Packard). The binding amount in the presence of 10 μmol/L […] (manufactured by Tocris) ((R)-(+)-[2,3-dihydro-5-methyl-3-(4-morpholinylmethyl)pyrrolo[1,2,3-de]-1,4-benzoxazin-6-yl]-1-naphthalenylmethanone) was considered to be a non-specific binding amount, and a difference between the total binding amount and the non-specific binding amount was considered to be a specific binding amount. The 50% inhibitory concentration (IC50 value) of the test compound against the specific binding was obtained, and the Ki value of the test substance was calculated from the 50% inhibitory concentration and the Kd value of the [^3H]CP55940 binding.

[2] = molecular target: T2, human CB2 receptor (Homo sapiens, UniProt P34972); assay: GTPγS binding experiment via human CB2 receptor (membrane fraction of CHO-K1 cells); format: biochemical; details: for Emax: read-out: Emax value (maximum effect of CP55940 as 100%)
T2 construct: expressed in transfected cells
Protocol: A test was carried out according to the method of Hillard et al. [The Journal of Pharmacology and Experimental Therapeutics, vol. 289, p. 1427 (1999)]. As for a membrane specimen, a membrane fraction was prepared from CHO-K1 cells in which a human CB2 receptor [Nature, vol. 365, pp. 61-65 (1993)] was stably expressed and used. The membrane specimen (final concentration: 40 μg of protein/mL) was incubated together with a test compound and [^35S]GTPγS (manufactured by PerkinElmer) (final concentration: 0.05 nmol/L) in an assay buffer (50 mmol/L Tris-HCl buffer (pH 7.4), 100 mmol/L NaCl, 1 mmol/L EDTA, 3 mmol/L MgCl2, and 0.1% bovine serum albumin) containing 20 μmol/L guanosine 5′-diphosphate (GDP) at 30° C. for 1 hour, and the resulting mixture was filtered using a glass filter GF/B (manufactured by Whatman). After the glass filter was washed with the assay buffer, the radioactivity on the glass filter was measured using a liquid scintillation counter (TRI-CARB 2700TR, manufactured by Packard). The binding amount in the presence of 10 μmol/L GTPγS was considered to be a non-specific binding amount, and a difference between the total binding amount and the non-specific binding amount was considered to be a specific binding amount. The ratio of increase in the specific binding amount in the presence of the test compound to the specific binding amount in the absence of the test compound was considered to be an agonistic activity of the test compound. The concentration of the test compound that produces 50% of the maximum effect (EC50 value) was calculated by performing a nonlinear regression analysis using the concentration-response data. The percentage of the maximum effect of the test compound (Emax value) was calculated by considering the maximum effect of CP55940 (manufactured by Tocris) measured at the same time as 100%.

[3] = system: rats with chronic constriction nerve injury; assay: Analgesic effect in rats with chronic constriction nerve injury (von Frey filament); format: in vivo, rat; details: oral, dose of 50 mg/kg or less, one hour after administration, von Frey filaments
Text: Rats with chronic constriction nerve injury were produced by partially modifying the method of Mosconi and Kruger et al. (Pain, vol. 64, pp. 37-57 (1996))
Male Crl:CD(SD) rats were used for the experiments. Under pentobarbital anesthesia, the sciatic nerve of the left hind limb of the rat was exfoliated, and the exfoliated region was wrapped with a polyethylene tube (trade name: Intramedic, size: PE-60, manufactured by Becton Dickinson and Company) of 2 mm in length. On days 14 to 21 after the surgery, the rats were placed in an acrylic connected cage with a wire mesh floor (900 mm (length)×210 mm (depth)×140 mm (height)) consisting of 4 cages connected in a row and allowed to acclimate to the environment for at least 20 minutes, and then, the pain was evaluated.
The von Frey filament (trade name: touch test sensory evaluator, Model number: model 58011, manufactured by Muromachi Kikai) was used to evaluate pain, and the results were calculated as a pain threshold. That is, by using a von Frey filament of different stimulus intensity, stimulation was given to the plantar surface of the injured side of rats with chronic constriction nerve injury, and the stimulus intensity to cause paw withdrawal response was obtained. Then, the 50% pain threshold (Paw withdrawal threshold) (g) was calculated by the up down method of Dixon [Annual Review of Pharmacology and Toxicology, vol. 20, pp. 441-462 (1980)].
In the evaluation of the test compound, rats with 50% pain threshold of less than 4 g were used, and the test compound was dissolved in a 0.5% aqueous methyl cellulose solution and orally administered at a dose of 5 mL/kg. One hour after the administration, the pain threshold was measured using von Frey filaments.

[4] = rat spleen membrane, [3H]CP55940 0.5 nmol/L, 25° C., 1 hour, read-out: Ki value against the CB2 receptor

T2 sequence (P34972 whole entry): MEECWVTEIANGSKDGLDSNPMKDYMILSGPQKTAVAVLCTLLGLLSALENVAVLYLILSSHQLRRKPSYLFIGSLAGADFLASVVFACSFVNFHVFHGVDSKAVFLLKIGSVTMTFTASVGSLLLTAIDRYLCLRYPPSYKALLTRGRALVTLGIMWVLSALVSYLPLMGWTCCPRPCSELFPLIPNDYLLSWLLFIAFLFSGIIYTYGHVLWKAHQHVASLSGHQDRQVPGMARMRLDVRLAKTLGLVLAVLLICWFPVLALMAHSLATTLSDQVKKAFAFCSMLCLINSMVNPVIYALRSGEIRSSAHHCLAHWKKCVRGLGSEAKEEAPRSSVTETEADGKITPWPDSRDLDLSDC

Row | Structure (SMILES) | Ki [1, 4] | EC50 [2] | Emax [2] | Ki [1] | 50% pain threshold (paw withdrawal threshold) [3]
1 | CC(C)(C)c1nc(-c2cccc([N+](=O)[O-])c2)cn1CC1CCCCC1 [Compound 28, 2-tert-Butyl-1-cyclohexylmethyl-4-(3-nitrophenyl)-1H-imidazole] | < 1000 nM |  |  |  | 
2 | CCN(CC)C(=O)c1cccc(-c2cn(CC3CCCCC3)c(C(C)(C)C)n2)c1 [Compound 32, 3-(2-tert-Butyl-1-cyclohexylmethyl-1H-imidazol-4-yl)-N,N-diethylbenzamide] | < 1000 nM |  |  |  | 
3 | COc1cccc(-c2cn(CC3CCCCC3)c(CC(C)(C)C)n2)c1 [Compound 38, 1-Cyclohexylmethyl-2-(2,2-dimethylpropyl)-4-(3-methoxyphenyl)-1H-imidazole] |  | < 1000 nM | > 30% |  | 
4 | CC(C)(C)c1nc(-c2cccc([N+](=O)[O-])c2)cn1CC1CCCCO1 (stereo not drawn) [Compound 42, 2-tert-Butyl-4-(3-nitrophenyl)-1-(tetrahydropyran-2-ylmethyl)-1H-imidazole] |  | < 1000 nM | > 30% | < 1000 nM | 
5 | CC(C)C(=O)c1cccc(-c2cn(CC3CCOCC3)c(C(C)(C)C)n2)c1 [Compound 47, 1-{3-[2-tert-Butyl-1-(tetrahydropyran-4-ylmethyl)-1H-imidazol-4-yl]phenyl}-2-methylpropan-1-one hydrochloride] | < 1000 nM |  |  |  | 
6 | CC(C)(C)c1nc(-c2cccc(C(=O)c3ccccc3)c2)cn1CC1CCOCC1 [Compound 48, {3-[2-tert-Butyl-1-(tetrahydropyran-4-ylmethyl)-1H-imidazol-4-yl]phenyl}phenylmethanone hydrochloride] |  | < 1000 nM | > 30% | < 1000 nM | 
7 | CC(=O)c1cccc(-c2cn(CC3CCOCC3)c(C(C)(C)C)n2)c1 [Compound 49, 1-{3-[2-tert-Butyl-1-(tetrahydropyran-4-ylmethyl)-1H-imidazol-4-yl]phenyl}ethanone] | < 1000 nM | < 1000 nM | > 30% |  | 
8 | CCNC(=O)c1cccc(-c2cn(CC3CCOCC3)c(C(C)(C)C)n2)c1 [Compound 72, 3-(2-tert-Butyl-1-(tetrahydropyran-4-ylmethyl)-1H-imidazol-4-yl)-N-ethylbenzamide] |  | < 1000 nM | > 30% | < 1000 nM | 
9 | CCN(CC)c1cccc(-c2cn(CC3CCOCC3)c(C(C)(C)C)n2)c1 [Compound 77, {3-[2-tert-Butyl-1-(tetrahydropyran-4-ylmethyl)-1H-imidazol-4-yl]phenyl}-diethylamine] |  | < 1000 nM | > 30% | < 1000 nM | 
10 | CC(C)(C)c1nc(-c2cccc(C(=O)N(CC(F)(F)F)CC(F)(F)F)c2)cn1CC1CCOCC1 [Compound 82, 3-(2-tert-Butyl-1-(tetrahydropyran-4-ylmethyl)-1H-imidazol-4-yl)-N,N-bis(2,2,2-trifluoroethyl)benzamide] |  | < 1000 nM | > 30% | < 1000 nM | 
11 | CC(C)(C)c1nc(-c2cncc(Br)c2)cn1CC1CCOCC1 [Compound 84, 3-Bromo-5-[2-tert-Butyl-1-(tetrahydropyran-4-ylmethyl)-1H-imidazol-4-yl]pyridine] | < 1000 nM |  |  |  | 
12 | CC(C)(C)c1nc(C=CC(=O)N(CC(F)(F)F)CC(F)(F)F)cn1CC1CCOCC1 [Compound 90, 3-(2-tert-Butyl-1-(tetrahydropyran-4-ylmethyl)-1H-imidazol-4-yl)-N,N-bis(2,2,2-trifluoroethyl)acrylamide] | < 1000 nM |  |  |  | 
13 | CCCN(CCC)C(=O)C=Cc1cn(CC2CCOCC2)c(C(C)(C)C)n1 [Compound 92, 3-(2-tert-Butyl-1-(tetrahydropyran-4-ylmethyl)-1H-imidazol-4-yl)-N,N-dipropylacrylamide] | < 1000 nM |  |  |  | 
14 | CN(C)C(=O)c1cc(-c2cn(CC3CCOCC3)c(C(C)(C)C)n2)cs1 [Compound 133, 4-[2-tert-Butyl-1-(tetrahydropyran-4-ylmethyl)-1H-imidazol-4-yl]thiophene-2-carboxylic acid dimethylamide] | < 1000 nM |  |  |  | significantly increased the pain threshold
15 | CN(C)C(=O)c1cccc(-c2cn(CC3(F)CCOCC3)c(C(C)(C)C)n2)c1 [Compound 187, 3-[2-tert-Butyl-1-(4-fluorotetrahydropyran-4-ylmethyl)-1H-imidazol-4-yl]-N,N-dimethylbenzamide] | < 1000 nM |  |  |  | significantly increased the pain threshold
16 | CN(C)C(=O)c1cc(-c2cn(CC3(F)CCOCC3)c(C(C)(C)C)n2)cs1 [Compound 188, 4-[2-tert-Butyl-1-(4-fluorotetrahydropyran-4-ylmethyl)-1H-imidazol-4-yl]-N,N-dimethylthiophene-2-carboxamide] | < 1000 nM |  |  |  | 
17 | CN(CC#N)C(=O)c1cncc(-c2cn(CC3CCOCC3)c(C(C)(C)C)n2)n1 [Compound 207, 6-[2-tert-Butyl-1-(tetrahydropyran-4-ylmethyl)-1H-imidazol-4-yl]-N-cyanomethyl-N-methylpyrazine-2-carboxamide] | < 1000 nM |  |  |  | significantly increased the pain threshold
18 | CCOc1ccc(Cc2nc(-c3cccc(OC)c3)cn2CC2CCOCC2)cc1 [Compound o, 2-(4-Ethoxybenzyl)-4-(3-methoxyphenyl)-1-(tetrahydro-pyran-4-ylmethyl)-1H-imidazole] | < 1000 nM |  |  |  | 
19 | CCOc1ccc(Cc2nc(-c3cccc(C#N)c3)cn2CC2CCOCC2)cc1 [Compound p, 3-[2-(4-Ethoxybenzyl)-1-(tetrahydropyran-4-ylmethyl)-1H-imidazol-4-yl]benzonitrile] | < 1000 nM |  |  |  | 
20 | CCOc1ccc(Cc2nc(-c3cccc(C(=O)N(CC)CC)c3)cn2CC2CCOCC2)cc1 [Compound q, 3-[2-(4-Ethoxybenzyl)-1-(tetrahydropyran-4-ylmethyl)-1H-imidazol-4-yl]-N,N-diethylbenzamide] | < 1000 nM |  |  |  | 
